In paper PMC4105567, “Aurora Kinases as Druggable Targets in Pediatric Leukemia: Heterogeneity in Target Modulation Activities and Cytotoxicity by Diverse Novel Therapeutic Agents” (PLoS ONE, 2014):
Read-outs that look alike come from different tables or passages of the source.

Tests used:
HL-60 RA APML cell line = assay: Cytotoxicity assay, HL-60 RA; assay type: cell-based, human; settings: APML cell line HL-60 RA, four days in culture, Alamar blue assay or automated microscopy, ± SD, three experiments
Experimental: (§1) Cell lines were cultured in Opti-MEM medium (Gibco, Life Technologies Corporation, Burlington, Ontario) supplemented with 10% heat inactivated fetal bovine serum (FBS) (Gibco), 100 units/ml penicillin and 100 units/ml streptomycin (Gibco) and 0.05 mM 2-mercaptoethanol (Sigma-Aldrich, Oakville, Ontario) in T25 flasks (Nalge Nunc, Rochester, New York) or T75 flasks (Corning Incorporated, Corning, New York). All cell cultures were maintained at 37°C in a humidified incubator with 5% CO2.
(§2) For cytotoxicity profiling of Aurora kinase inhibitors against leukemia cell lines, inhibitors or vehicle control (DMSO, Sigma-Aldrich) were diluted in 100 µl of Opti-MEM per well in 96 well plates (Grenier Bio-One, Monroe, North Carolina) in triplicate at final concentrations ranging from 1×10^−6 to 10 µM. 1×10^4 cells per well were seeded and plates were incubated for 4 days. Following incubation for 4 days, cell survival was quantified by Alamar blue assay (Invitrogen) or automated inverted microscopy using the Celigo Cell Cytometer (Cyntellect, San Diego, California). […] During this period of incubation, the absorbance at 570–620 nm was measured (Opsys MR Plate Reader, Dynex Technologies, Chantilly, Virginia) at various time points, depending on the cell line or sample. Percent survival was calculated by comparing the absorbance ratio of the test well to the control well multiplied by 100%, as indicated in the following formula: […]
(§3) For automated inverted microscopy, the number of cells in each well was determined using the direct cell counting application as described previously. Briefly, following adjustment of image acquisition settings for bright-field imaging, the wells containing cells and appropriate dilutions of inhibitors were individually scanned. Based on these images, analysis parameters, including intensity threshold and cell diameter, were modified for optimal inclusion of viable cells in treated and control wells. These parameters were applied for subsequent replicates involving the same leukemia cell line or sample. The percent survival was then calculated as a ratio of the number of cells in treated wells to the number of cells in control wells multiplied by 100%. Given that Aurora kinase inhibitors interfere with cytokinesis, cells that are committed to death may still contain enlarging but intact cytoplasmic content before the eventual loss of cytoplasmic membrane integrity. The accuracy of Alamar blue assay may be, in theory, affected by the timing of these events.

Aurora-B = test system: Aurora-B; parameters: method as in earlier work; settings: literature values; ref [10],[22],[27],[40],[44]–[64] as listed per inhibitor in Table 1; read-out: Targets (IC50 Value): Aurora-B; cited from earlier work
B1 B-ALL cell line = assay: Cytotoxicity assay, B1; assay type: cell-based, human; settings: four days in culture, Alamar blue assay or automated microscopy, ± SD, three experiments
Experimental: as §1, §2, §3

CEM T-ALL cell line = assay: Cytotoxicity assay, CEM; assay type: cell-based, human; settings: four days in culture, Alamar blue assay or automated microscopy, ± SD, three experiments
Experimental: as §1, §2, §3

[1] = test system: Patient #5 ALL/AML primary leukemia cells; assay: Cytotoxicity assay, primary sample Patient #5; assay type: cell-based, human; settings: primary sample, four days in culture, Alamar blue assay or automated microscopy, one complete study, read-out: IC50, Patient #5 ALL/AML
Experimental: (§4) These include B-ALL (Patient #1), relapsed AML (Patient #2), AML/CML (Patient #3), infant ALL (Patient #4), and initial ALL presenting with secondary AML (Patient #5). […] The diluted sample was then layered on a Ficoll-Paque (GE Healthcare, Piscataway, New Jersey) gradient at a 1∶2 ratio of Ficoll to diluted sample. Samples were then centrifuged 1800 rpm for 20 minutes at room temperature. The buffy coat was removed with a pipette and transferred to a new centrifuge tube and diluted with PBS. After an additional centrifugation at 1200 rpm, the white blood cell pellet was washed with PBS and centrifuged one last time. Cells were re-suspended in Opti-MEM and viable cells were counted using trypan blue (Invitrogen, Life Technologies Corporation, Burlington, Ontario) exclusion on a haemocytometer. An identical protocol was followed for the isolation of white blood cells, referred to as “normal lymphocytes” in the following paragraphs, from healthy volunteers. Samples grown in culture for up to six months were cultured in Opti-MEM medium supplemented with 10% heat inactivated FBS, penicillin/streptomycin and 2-mercaptoethanol.
as §2, §3

Normal Lymphocytes = assay: Cytotoxicity assay, normal lymphocytes; assay type: cell-based, human; settings: normal lymphocytes (control for non-leukemia cytotoxicity), four days in culture, ± SD, three experiments
Experimental: as §4, §2, §3

Molm13 AML cell line = assay: Cytotoxicity assay, Molm13; assay type: cell-based, human; settings: four days in culture, Alamar blue assay or automated microscopy, ± SD, three experiments
Experimental: as §1, §2, §3

Molt-3 T-ALL cell line = assay: Cytotoxicity assay, Molt-3; assay type: cell-based, human; settings: T-ALL cell line Molt-3, four days in culture, Alamar blue assay or automated microscopy, ± SD, three experiments
Experimental: as §1, §2, §3

TIB-202 AML cell line = assay: Cytotoxicity assay, TIB-202; assay type: cell-based, human; settings: AML cell line TIB-202, four days in culture, Alamar blue assay or automated microscopy, ± SD, three experiments
Experimental: as §1, §2, §3

NB4 APML cell line = assay: Cytotoxicity assay, NB4; assay type: cell-based, human; settings: four days in culture, Alamar blue assay or automated microscopy, ± SD, three experiments
Experimental: as §1, §2, §3

Bone Marrow Stroma = assay: Cytotoxicity assay, bone marrow stroma; assay type: cell-based, human; settings: bone marrow stroma (control for non-leukemia cytotoxicity), four days in culture, ± SD, three experiments
Experimental: as §2, §3

MV4-11 AML cell line = assay: Cytotoxicity assay, MV4-11; assay type: cell-based, human; settings: AML cell line MV4-11, four days in culture, Alamar blue assay or automated microscopy, ± SD, three experiments
Experimental: as §1, §2, §3

Aurora-A = test system: Aurora-A; parameters: method as in earlier work; settings: read-out: Targets (IC50 Value): Aurora-A, cited from earlier work
[2] = test system: Patient #4 infant leukemia primary cells; assay: Cytotoxicity assay, primary sample Patient #4; assay type: cell-based, human; settings: four days in culture, Alamar blue assay or automated microscopy, one complete study
Experimental: as §4, §2, §3

[3] = test system: normal cells versus leukemia cell lines; assay: Comparison of cytotoxicity IC50 values, normal cells versus leukemia cell lines; assay type: cell-based, human; settings: normal lymphocytes and bone marrow stroma versus leukemia cell lines of Table 2
Experimental: as §2, §3

HL-60 APML cell line = assay: Cytotoxicity assay, HL-60; assay type: cell-based, human; settings: APML cell line HL-60, four days in culture, Alamar blue assay or automated microscopy, ± SD, three experiments
Experimental: as §1, §2, §3

SEM B-ALL cell line = assay: Cytotoxicity assay, SEM; assay type: cell-based; settings: Homo sapiens, 96 h, four days in culture, Alamar blue assay or automated microscopy, ± SD, three experiments
Experimental: as §1, §2, §3

C1 B-ALL cell line = assay: Cytotoxicity assay, C1; assay type: cell-based, human; settings: four days in culture, Alamar blue assay or automated microscopy, ± SD, three experiments
Experimental: as §1, §2, §3

KOPN8 B-ALL cell line = assay: Cytotoxicity assay, KOPN8; assay type: cell-based, human; settings: four days in culture, Alamar blue assay or automated microscopy, ± SD, three experiments
Experimental: as §1, §2, §3

[4] = test system: Patient #1 B-ALL primary leukemia cells; assay: Cytotoxicity assay, primary sample Patient #1; assay type: cell-based, human; settings: four days in culture, Alamar blue assay or automated microscopy, one complete study
Experimental: as §4, §2, §3

Nalm6 B-ALL cell line = assay: Cytotoxicity assay, Nalm6; assay type: cell-based, human; settings: four days in culture, Alamar blue assay or automated microscopy, ± SD, three experiments
Experimental: as §1, §2, §3

[5] = test system: Patient #2 relapsed AML primary leukemia cells; assay: Cytotoxicity assay, primary sample Patient #2; assay type: cell-based, human; settings: four days in culture, Alamar blue assay or automated microscopy, one complete study
Experimental: as §4, §2, §3

[6] = test system: Patient #3 AML/CML primary leukemia cells; assay: Cytotoxicity assay, primary sample Patient #3; assay type: cell-based, human; settings: Homo sapiens, 96 h, four days in culture, Alamar blue assay or automated microscopy, one complete study
Experimental: as §4, §2, §3

UOCB1 B-ALL cell line = assay: Cytotoxicity assay, UOCB1; assay type: cell-based, human; settings: four days in culture, Alamar blue assay or automated microscopy, ± SD, three experiments
Experimental: as §1, §2, §3

Aurora-C = settings: read-out: Targets (IC50 Value): Aurora-C; literature values; ref [10],[40],[44]–[64] as listed per inhibitor in Table 1; cited from earlier work
[7] = literature values, ref [10],[22],[27],[40],[44]–[64] as listed per inhibitor in Table 1

SMILES: CCN(CCCOc1ccc2c(Nc3cc(CC(=O)Nc4cccc(F)c4)n[nH]3)ncnc2c1)CCOP(=O)(O)O [AZD1152]
- IC50 (HL-60 RA APML cell line; Homo sapiens, 96 h): 0.7 nM
- IC50 (B1 B-ALL cell line; Homo sapiens, 96 h): 200 ± 100 nM
- IC50 (CEM T-ALL cell line; Homo sapiens, 96 h): < 0.001 nM
- IC50 ([1]; Homo sapiens, 96 h): 0.02 nM
- IC50 (Normal Lymphocytes; Homo sapiens, Lymphocyte, 96 h): > 10000 nM
- IC50 (Molm13 AML cell line; Homo sapiens, MOLM-13, 96 h): 7 ± 3 nM
- IC50 (Molt-3 T-ALL cell line; Homo sapiens, 96 h): < 0.001 nM
- IC50 (TIB-202 AML cell line; Homo sapiens, 96 h): 500 ± 200 nM
- IC50 (NB4 APML cell line; Homo sapiens, 96 h): 50 ± 20 nM
- IC50 (Bone Marrow Stroma; Homo sapiens, 96 h): > 10000 nM
- IC50 (MV4-11 AML cell line; Homo sapiens, 96 h): 0.9 nM
- IC50 ([2]; Homo sapiens, 96 h): > 10000 nM
- IC50 values for the normal cells compared with IC50 values for the leukemia cell lines (potential therapeutic window) [3]: higher than the IC50 values for the leukemia cell lines
- IC50 (HL-60 APML cell line; Homo sapiens, 96 h): 300 ± 90 nM
- IC50 (SEM B-ALL cell line): 100 ± 60 nM
- IC50 (C1 B-ALL cell line; Homo sapiens, 96 h): 0.8 nM
- IC50 (KOPN8 B-ALL cell line; Homo sapiens, KOPN-8, 96 h): 0.2 nM
- IC50 ([4]; Homo sapiens, 96 h): 0.005 nM
- IC50 (Nalm6 B-ALL cell line; Homo sapiens, NALM-6, 96 h): 8 ± 2 nM
- IC50 ([5]; Homo sapiens, 96 h): 600 nM
- IC50 [6]: > 10000 nM
- IC50 (UOCB1 B-ALL cell line; Homo sapiens, UoC-B1, 96 h): 0.6 nM

SMILES: CN(C)c1ccc(-c2nc3ncc(Cl)c(N4CCN(CC(=O)Nc5nccs5)CC4)c3[nH]2)cc1 [CCT129202]
- IC50 (HL-60 RA APML cell line): 8000 ± 500 nM
- IC50 (Aurora-B): 200 nM
- IC50 (B1 B-ALL cell line): 3000 ± 600 nM
- IC50 (CEM T-ALL cell line): 900 ± 50 nM
- IC50 [1]: 70 nM
- IC50 (Normal Lymphocytes): > 10000 nM
- IC50 (Molm13 AML cell line): 5000 ± 900 nM
- IC50 (Molt-3 T-ALL cell line): 2000 ± 600 nM
- IC50 (TIB-202 AML cell line): 50 ± 5 nM
- IC50 (NB4 APML cell line): > 10000 nM
- IC50 (Bone Marrow Stroma): 1000 ± 700 nM
- IC50 (MV4-11 AML cell line): 100 ± 60 nM
- IC50 (Aurora-A; [7]): 40 nM
- IC50 [2]: > 10000 nM
- IC50 values for the normal cells compared with IC50 values for the leukemia cell lines (potential therapeutic window) [3]: lower than the IC50 values for the normal cells, but not as pronounced
- IC50 (HL-60 APML cell line): 7000 ± 800 nM
- IC50 (C1 B-ALL cell line): 3000 ± 800 nM
- IC50 (KOPN8 B-ALL cell line): 700 ± 100 nM
- IC50 [4]: 700 nM
- IC50 (Nalm6 B-ALL cell line): 2000 ± 800 nM
- IC50 [5]: 400 nM
- IC50 (UOCB1 B-ALL cell line): 900 ± 90 nM

SMILES: Cc1cc(Nc2cc(N3CCN(C)CC3)nc(Sc3ccc(NC(=O)C4CC4)cc3)n2)[nH]n1 [VX-680]
- IC50 (HL-60 RA APML cell line; Homo sapiens, 96 h): 1 ± 0.5 nM
- IC50 (B1 B-ALL cell line; Homo sapiens, 96 h): 5 ± 3 nM
- IC50 ([1]; Homo sapiens, 96 h): 0.5 nM
- IC50 (Normal Lymphocytes; Homo sapiens, Lymphocyte, 96 h): 5000 ± 900 nM
- IC50 (Molm13 AML cell line; Homo sapiens, MOLM-13, 96 h): 4 ± 2 nM
- IC50 (Molt-3 T-ALL cell line; Homo sapiens, 96 h): 0.9 nM
- IC50 (TIB-202 AML cell line; Homo sapiens, 96 h): 7 ± 3 nM
- IC50 (NB4 APML cell line; Homo sapiens, 96 h): 7 ± 2 nM
- IC50 (Bone Marrow Stroma; Homo sapiens, 96 h): > 10000 nM
- IC50 (MV4-11 AML cell line; Homo sapiens, 96 h): 2 ± 1 nM
- IC50 ([2]; Homo sapiens, 96 h): 1000 nM
- IC50 values for the normal cells compared with IC50 values for the leukemia cell lines (potential therapeutic window) [3]: higher than the IC50 values for the leukemia cell lines
- IC50 (HL-60 APML cell line; Homo sapiens, 96 h): 60 ± 5 nM
- IC50 (SEM B-ALL cell line): 60 ± 20 nM
- IC50 (C1 B-ALL cell line; Homo sapiens, 96 h): 0.4 nM
- IC50 (KOPN8 B-ALL cell line; Homo sapiens, KOPN-8, 96 h): 3 ± 0.5 nM
- IC50 ([4]; Homo sapiens, 96 h): 0.09 nM
- IC50 (Nalm6 B-ALL cell line; Homo sapiens, NALM-6, 96 h): 0.2 nM
- IC50 ([5]; Homo sapiens, 96 h): 100 nM
- IC50 [6]: 2000 nM
- IC50 (UOCB1 B-ALL cell line; Homo sapiens, UoC-B1, 96 h): < 0.001 nM
